melting point [°C]	SMILES
228 to 230	COc1ccc(-c2csc(NC(=O)c3cc4ccccc4cn3)n2)cc1OC
210	CC(O)=C(C#N)C(=O)N1CCN(c2ccc(NC(=O)c3cnn(-c4ccc(F)cc4)c3C)cc2C#N)CC1
187 to 188	Nc1ncnc2c1c(-c1ccc(Oc3ccccc3)cc1)nn2C1CCOCC1
210	O=C(Nc1ccccc1)O[C@@H]1CN=C(c2ccc(NC(=O)C(F)(F)F)cc2)O[C@H]1c1ccccc1 (racemic)
232 to 233	CCc1cc(CCN2C(=O)c3ccccc3C2=O)c(=O)[nH]c1C
212	CC(C)(C)OC(=O)CCNC(=O)c1cccc(NC(=O)c2csc(NC(=O)NCc3ccccc3)n2)c1
168 to 169	CCn1c(=O)n(CC)c2cc3c(N4CCN(C(=O)Nc5ccc(Oc6ccccc6)cc5)CC4)ncnc3cc21
190 to 191	COc1cc(OCCN2CCCC2)c2c(=O)[nH]c(-c3cc(C)nc(C)c3)nc2c1
196 to 199	Cc1cccc(Nc2cc(Nc3ccc(OCCO)cc3)ncn2)c1
207 to 208	O=C1CCCc2ccc(OCCCCN3CCN(c4cccc5c4CCC5)CC3)nc2N1
210 to 214	COc1cc2c(cc1OC)C(c1ccc([N+](=O)[O-])cc1)=NN(c1ccccn1)[C@H](C)C2
250	COc1cc2c(-c3cc4cccnc4[nH]3)cn(C)c2cc1O
222 to 223	CC(Oc1ccc(-c2ccc(S(N)(=O)=O)cc2)cc1)C(O)CCc1cccnc1 (centres undefined)
160	COC(=O)c1cc(C(=O)c2c(C)c(-c3cccc(OCC(=O)O)c3)c3ccccn23)ccc1N
201 to 202	CCCn1nc2c(N)nc3ccccc3c2c1CCNC(=O)Nc1ccc(F)cc1
145 to 147	O=C(NCN1CCN(c2ccccc2Cl)CC1)c1ccccc1
154 to 156	Cc1nc(Cl)c(Cl)n1CCCCN1CCN(c2ncc(O)cn2)CC1
168 to 170	CCc1cccc(C=CC(=O)CCCc2ccccc2)c1NC(=O)CC1c2ccccc2Oc2ccccc21
86	CCOC(=O)C(C)Oc1ccc(Oc2nc3ccccc3cc2Cl)cc1 (centres undefined)
75	COc1ccc2c(-c3ccc(OCCN4CCCC4)cc3)c(Cc3ccc(Cl)cc3)oc2c1
64 to 69	COc1ccc(C2CCN(C)CC2)cc1Nc1ncc2ccc(-c3ccccc3OC)n2n1
137	CCCCOc1ccc(S(=O)(=O)C2(C(=O)NO)CCN(Cc3cccc(OC)c3)CC2)cc1
153 to 157	CCCCc1nccn1Cc1ccc2oc(-c3ccccc3C(=O)O)cc2c1
117 to 120	Oc1c(C2NCCc3ccccc32)ccc2ccccc12 (centres undefined)

melting point [°C]	SMILES
280 to 281	O=c1c2c(CC3CCCCC3)n[nH]c2c2cccnc2n1-c1ccccc1
100 to 101	O=C(NC(=O)C(c1ccccc1)c1ccccc1)OCc1ccccc1
152 to 153	COc1ccc(Nc2ccc3cc(O)ccc3c2)cc1
98 to 99	CC(C)(C)OC(=O)N1CC(O)C(NS(=O)(=O)c2ccc(Oc3ccccc3)cc2)C1 (centres undefined)
130 to 132	O=C(CCC1CCCC1)Nc1ccc(-n2nc(C(F)(F)F)cc2C(F)(F)F)cc1
216 to 217	Fc1ccc(-c2n[nH]cc2-c2ccnc(NCc3ccccc3)n2)cc1
170 to 173	COc1ccc(CNc2nc(N3CCCC3CO)nnc2C(=O)NCc2ncccn2)cc1Cl (centres undefined)
170 to 182	CC(CSC(=O)c1ccccc1)C(=O)N1CC(Oc2ccc(CC3Nc4cc(C(F)(F)F)c(S(N)(=O)=O)cc4S(=O)(=O)N3)cc2)CC1C(=O)O (centres undefined)
128 to 133	O=C(c1ccccc1)c1ccc2nc(-c3ccc[nH]3)[nH]c2c1
128 to 131	CCC1CC(=S)N(c2ccc3oc(=O)c(N4C(=O)C(CC)CC4=S)cc3c2)C1=O (centres undefined)
116 to 117	CC(=O)c1ccc(OCCCN2CCC(C(O)(c3ccc(F)cc3)c3ccc(F)cc3)CC2)c(C)c1
88 to 92	Cc1cccc(-c2[nH]c(C(C)C)nc2-c2cccc(-c3ccc(S(=O)(=O)N4CCOCC4)cc3)c2)n1
117 to 119	CC(C#CCOc1cccc(Oc2ccccn2)c1)N(O)C(N)=O (centres undefined)
187 to 188	CCOc1cc2cc(CO)nc(-c3ccc(Cl)c([N+](=O)[O-])c3)c2cc1OCC
148 to 150	Oc1ccc(OCC(O)CNC2CCN(c3ccc(Cl)cn3)CC2)cc1 (centres undefined)
105 to 120	COc1ccc(C(=CC(=O)N2CCOCC2)c2ccc(O)cc2)cc1OC
143 to 145	COc1ccc(-c2oc3cc(OC)cc(O)c3c(=O)c2OC)cc1
150 to 151	Cc1cc2c(cc1OCCn1ccnc1)CC/C(=C\c1cccs1)C2=O
116 to 117	COC(=O)c1c(NC(C)=O)sc2c1CCC(c1ccccc1)C2 (centres undefined)
60	COC(=O)c1ccc(C(O)c2cc3cc(C(F)(F)F)ccc3n2S(=O)(=O)c2cccc(C(C)(C)C)c2)cc1 (racemic)
110 to 112	O=C(CC1CCCC(Cl)C1)Nc1ccccc1 (centres undefined)
128	CS(=O)(=O)c1ccc(-c2cc(C(=O)c3ccncc3)sc2N2CCOCC2)cc1
124 to 125	CN1C(=O)N(CC(COc2ccc(-c3ccc(Cl)cc3)cc2)N(O)C=O)C(=O)C1(C)C (centres undefined)

The remaining lines, values behind:

SMILES	melting point [°C]
CCCC(NOCC)=C1C(=O)CC(C2=C(C)CCCC2(C)C)C(C(=O)OC)C1=O (centres undefined)	70
O=C(c1c(F)cccc1F)N1CS(=O)CN(c2ccc(Cl)cc2)C1=O (centres undefined)	220
C=C(C)C(=O)OCc1c(Br)c(Br)c(Br)c(COC(=O)C(=C)C)c1Br	97 to 99
CN1CCN(c2cccc3ccc(NC(N)=S)cc23)CC1	194 to 195
CCCCOc1cc(CCS(=O)(=O)NC(=O)OCCC)n(Cc2ccc(Cl)cc2Cl)n1	92 to 94
CN1CC(CNC(=S)NC(=O)c2ccccc2)CC2c3cccc4[nH]cc(c34)CC21 (centres undefined)	153 to 155
CCOC(=O)c1ncn(-c2nc(C)c(Cl)s2)c1S(N)(=O)=O	136 to 139
CCOC(=O)C1=Cc2cc(Br)ccc2SC1	87
COc1ccc2ccc(N3C(=O)c4ccccc4C3OC(=O)N3CCN(C)CC3)nc2n1 (centres undefined)	218
CCn1cc(C(=O)O)c(=O)c2cc(F)c(C(C)=O)c(F)c21	250 to 251
C[N+]([O-])=C(Cn1ccnc1)c1ccco1	120 to 123
N#Cc1sc(Cl)c(Cl)c1Cl	63 to 64
O=C(O)COc1ccc(/C=C/C(=O)C(F)(F)F)cc1	156
Cc1cccc2c1C(=O)C1(CCOC1=O)S2 (centres undefined)	106
O=c1[nH]c2cc(Cl)ccc2cc1-c1ccc(O)cc1	262
CSCC(=O)[C@H](Cc1ccccc1)NC(=O)[C@H](CC(C)C)NS(=O)(=O)c1ccccc1	133 to 136
CN(C)c1nc2sc3c(NCc4cccnc4)ncnc3c2c2c1COC(C)(C)C2	250 to 252
O=C1OCCN1c1ccc(OC(F)C(F)(F)F)cc1 (centres undefined)	74 to 76
Cc1c(-c2cnccn2)c(N2CC[C@H](N(C)C)C2)c2oc(C3CC3)nc2c1C#N	157 to 159
O=C1C=CC2=C(C1CC1CC1)n1ccc3c1=C(CCC=3)c1nncn12 (centres undefined)	99
CCCNS(=O)(=O)c1cc(C(=O)CCC(=O)OC)ccc1Cl	93 to 94
O=c1c2ccc(Cl)cc2[nH]c2c(O)nn(Cc3ccsc3)c(=O)c12	> 250
Fc1ccc2c(c1)nc(C(F)(F)C(F)(F)F)n2C1CCNCC1	177 to 178
N#Cc1cccnc1NCc1nc2ccc(F)cc2c(=O)n1-c1ccccc1Cl	145 to 150
COC(=O)C(C)Oc1ccccc1S(N)(=O)=O (centres undefined)	140 to 142
O=c1ccc(S(=O)(=O)c2cc3ccc(Cl)cc3[nH]2)n[nH]1	> 250

SMILES	melting point [°C]
O=Cc1cccc2cncn12	138 to 140
CCOC(=O)C1=Cc2cc(Br)ccc2N(C=O)CC1	150 to 152
Clc1ccc2c(c1)C(c1ccccc1)=NCc1nnc(-c3ccccc3)n1-2	194
CSc1c(S(=O)(=O)NC(C)(C)C)ccn1C	116 to 119
Nc1cc(OCc2cccc(I)c2)c(C(=O)NC2CN3CCC2CC3)cc1Cl (centres undefined)	102 to 104
Cc1cccc2c1C(=O)C1(CC1)S2	128
Cc1nc2cc(Br)ccc2s1	84 to 85
CCOC(=O)c1cc(OCCOC)c(OCCOC)cc1[N+](=O)[O-]	50 to 51
O=[N+]([O-])C=C1SCCN1Cc1ccc(Cl)nc1	177 to 179
CC(CCC(=O)O)CC(C)CC(C)C(=O)C=C(O)C(C)CC(C)CC=CC(C)C(O)C(C)C(O)CC1CCC(C)(C2CCC(C)(C(C)O)O2)O1 (centres undefined)	203
CC(C)(C)c1cc(CC2CCCCC2=O)cc(C(C)(C)C)c1O (centres undefined)	79
COC(=O)[C@H](CCCCNC(=O)OC(C)(C)C)NC(=O)c1ccccc1	108 to 109
COc1ccc(Cl)cc1-c1c(N)c(=O)[nH]c2cc(Cl)cc(Cl)c12	284 to 287
CC(=O)NC(=O)OCc1nc(C(C)C)c(Sc2cc(Cl)cc(Cl)c2)n1Cc1ccncc1	135 to 137
O=C(O)c1ccccc1C(=O)C=Cc1cc(O)c(O)c([N+](=O)[O-])c1	178 to 180
CCCn1nc2c(N)nc3ncccc3c2c1CC	303 to 305
Nc1cc(Br)nn1-c1c(Cl)cc(C(F)(F)F)cc1Cl	132 to 134
CCOC(=O)c1nnn[nH]1	86 to 90
CCCC(=O)NCc1ccc(C(=O)O)cc1	186 to 188
Cc1c(C(=O)O)ccc(S(C)(=O)=O)c1N	197 to 198
CCOC(=O)CCc1cccc(N(C)C)c1	94 to 98
COc1cc2ccsc2c(Cl)c1Cl	103 to 104
CC(C)(C)OC(=O)N1CCC(Oc2cccc3[nH]ccc23)C1 (centres undefined)	164 to 165
CCOC(=O)COn1ccncc1=O	98 to 100
Cc1ccc(-c2nc3cccnc3n2CC(N)=O)s1	> 250
CNC(=NCCSCc1cc(CN(C)C)ccn1)NC#N	114 to 116

— a melting point compilation (Tetko et al.; mined from patent text by program, amines drawn as free bases though some values may be those of a salt)
